According to US20200148682A1, “AKT ISOZYME-SPECIFIC COVALENT INHIBITORS DERIVED FROM REDOX-SIGNALING LIPIDS” (Cornell University, priority 2017, published 2020):
Where “and” joins values, the source holds several entries; their conditions need not be identical. Equal entries are not always repeated.

Key:
Type in all cases: cell-based
[1] = system: MDA-MB-468 cells; test: Assay for drug synergism with Akt isoform-specific knockdown; conditions: for Fold Selectivity (MK-FNE vs MK-2206 sensitization by knockdown): 72 hours
Description: MDA-MB-468 cells were plated in a 6-well plate to reach 80% confluence 10 hours post seeding. […] The cells were allowed to grow for 12 hours before addition of an equivalent volume of rinse medium containing varying concentrations of MK-2206, MK-FNE, or DMSO. The cells continued to grow for 72 hours before adding 1/10th volume of AlamarBlue® reagent to culture medium. The fluorescence emission signals at 590 nm were read by Cytation 3 cell imaging multi-mode reader (BioTeK) using an excitation wavelength of 560 nm. Curve fitting and data analysis were performed using Prism software. The effect of the different knockdowns on the drug action was expressed by calculating the fold selectivity (S): […]

[2] = system: MDA-MB-468 cells; test: Drug effect persistence assay; conditions: for proliferation after drug withdrawal vs continuous treatment: 48 hours drug, then 24 hours without
Description: (§1) After this time, cells were lysed and analyzed by antibodies for phosphorylated T305 (pT305) of Akt3, Halo (Akt), and Actin (loading control). […] FIG. 23F is a graph showing proliferation curves. […] After this time, the number of viable cells was calculated using AlamarBlue®. Proliferation curves were fitted to the PI50 equation (EQN. 4). […] FIG. 23H is a graph showing the percentage of viable cells. […] The percentage of growth relative to DMSO-treated cells is shown for the 48 hour point and the 72 hour point. FIG. 23I is a schematic showing the different methods used to derive the data in 23H.
MDA-MB-468 cells were plated in a 96-well plate at a density of 3,000-5,000 cells per well for 10 hours before the addition of varying concentrations of inhibitors. The cells were allowed to grow for 48 hours. The cell medium was aspirated and the cells were washed once with DMEM medium. The cells continued to grow in 5% FBS DMEM medium for 24 hours before adding 1/10th volume of AlamarBlue® reagent to cells in culture medium. The fluorescence emission signals at 590 nm were read using a Cytation 3 cell imaging multi-mode reader (BioTeK) using an excitation wavelength of 560 nm. Curve fitting and data analyses were performed using Prism software (FIG. 23I).

[3] = system: MDA-MB-468 cells; test: Cell cycle analysis using flow cytometry; conditions: for effect on cell cycle: 72 hours
Description: MDA-MB-468 cells in a 6-well plate at 10% confluence were treated with HNE alkyne or the indicated drug at PI60 or PI80 concentration for 72 hours at 37° C. Negative control contained the equivalent volume of DMSO. Cells were grown and analyzed in separate batches of 1-2 replicates per condition that were run 2-3 times each. Each time the data points were normalized to the control set for each batch. At the indicated time post compound treatment, the culture medium was aspirated and the adherent cells were detached from the plate using trypsin, quenched with complete media, centrifuged (700 g), washed once with PBS, centrifuged (700 g), resuspended in PBS, then fixed with 70% ethanol for 24 hours. The cell suspensions were spun down at 1,000 g and washed with 500 μl of PBS twice. Each cell pellet was treated with 500 μL staining solution containing 50 μl of Ribonuclease A (≥70 Kunitz units/mg proteins, R6513, Sigma-Aldrich) and 50 μl of a propidium iodide (1 mg/ml, Sigma-Aldrich) solution in PBS with 1% BSA. The resulting solution was incubated with agitation at room temperature for 30 min in the dark.
The stained cells were assayed on a BD LSR II flow cytometer. FlowJo® was used to deconvolute the signals. Cells were grouped first by forward and side scatter (area), then that group was regrouped using forward (width) versus forward (area) scatter to give single cells. Cells were than analyzed using cellular DNA content to quantitate the percentage of cells in the respective phases (G1, S, G2/M and sub-G0) of the cell cycle.

[4] = molecular target: T1, Akt3 (pT305) (Homo sapiens, UniProt Q9Y243); test: Western blot and ratiometric ELISA of Akt phosphorylation in HEK293T cells; conditions: 5 μM, 48 hours
T1 construct: expressed in transfected cells; host or cells: HEK293T
T1 sequence (Q9Y243 whole entry): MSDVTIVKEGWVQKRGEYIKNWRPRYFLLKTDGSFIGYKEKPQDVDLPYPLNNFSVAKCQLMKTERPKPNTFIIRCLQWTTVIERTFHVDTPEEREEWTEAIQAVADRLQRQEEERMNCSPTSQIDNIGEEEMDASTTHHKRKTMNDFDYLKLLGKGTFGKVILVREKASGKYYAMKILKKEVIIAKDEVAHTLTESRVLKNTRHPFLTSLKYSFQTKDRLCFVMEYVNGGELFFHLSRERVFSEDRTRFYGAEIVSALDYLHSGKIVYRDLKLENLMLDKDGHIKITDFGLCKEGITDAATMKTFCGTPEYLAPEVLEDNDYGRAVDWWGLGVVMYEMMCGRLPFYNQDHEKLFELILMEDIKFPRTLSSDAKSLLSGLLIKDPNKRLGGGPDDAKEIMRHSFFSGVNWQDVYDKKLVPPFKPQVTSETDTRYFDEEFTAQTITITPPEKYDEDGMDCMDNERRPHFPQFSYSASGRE
Description: as §1
The proteins in gel were transferred onto a PVDF membrane in Towbin buffer at 90 V for 2 hours at 4° C. or at 33 V overnight at 4° C. […] Proteins were visualized using Pierce™ ECL Western Blotting Substrate (32106, Thermo Fisher), Pierce™ ECL2 Western Blotting Substrate (32132, Thermo Fisher) or SuperSignal™ Western Blot Enhancer (46640, Thermo Fisher), depending on the signal strength.
Anti-Halo antibody at 1 μg/mL concentration in sodium bicarbonate buffer (pH 9.6) was added to a 96-well white plate (80 μL […]) at 4° C. for 24 hours. After this, the incubation buffer was removed and the wells were washed once with TBS-T2 (100 mM Tris, 150 mM NaCl 0.03% Tween-20) and then blocked in 5% BSA in TBS-T2 (280 μL per well) for 3-5 hours at room temperature. […]

[5] = knockdown of Akt3 (approximately 40-60%)

Compound | sensitization to toxicity relative to control knockdown cells [1, 5] | proliferation after drug withdrawal vs continuous treatment [2] | EC60 concentration ([2]; MDA-MB-468, concentration used for 48 hours treatment) [µM] | G1/G0 (percentage of cells in phase) ([3]; drug at PI60, 72 hours) | G2/M (percentage of cells in phase) ([3]; drug at PI60, 72 hours) | S (percentage of cells in phase) ([3]; drug at PI60, 72 hours) | subG0 (percentage of cells in phase) ([3]; drug at PI60, 72 hours) | G1/G0 (percentage of cells in phase) ([3]; drug at PI80, 72 hours) | G2/M (percentage of cells in phase) ([3]; drug at PI80, 72 hours) | S (percentage of cells in phase) ([3]; drug at PI80, 72 hours) | subG0 (percentage of cells in phase) ([3]; drug at PI80, 72 hours) | phosphorylation of T305 of Akt3 [4] | sensitization to toxicity relative to control knockdown cells ([1]; Akt1 or Akt2 knockdown (approximately 40-60%), on average) | Fold Selectivity (MK-FNE vs MK-2206 sensitization by knockdown) ([1]; siAKT1, two siRNAs) | Fold Selectivity (MK-FNE vs MK-2206 sensitization by knockdown) ([1]; siAKT3, two siRNAs) | effect on cell cycle [3]
NC1(c2ccc(-c3nc4ccn5c(=O)[nH]nc5c4cc3-c3ccccc3)cc2)CCC1 [MK-2206] | 2-3 fold | significant regain of proliferation | 2 | 41.8 | 31.3 | 25.4 | 0.3 | 50.2 | 29.0 | 19.6 | 0.3 | lowered phospho-T305 (pT305) levels considerably |  |  |  | 
C#CCCCC(F)/C=C/C(=O)NC1(c2ccc(-c3nc4ccn5c(=O)[nH]nc5c4cc3-c3ccccc3)cc2)CCC1.Cl (stereo not drawn) [MK-FNE, (E)-8-(4-(1-(4-Fluoronon-2-en-8-ynamido)cyclobutyl)phenyl)-3-oxo-9-phenyl-2,3-dihydro-[1,2,4]triazolo[3,4-f][1,6]naphthyridin-7-ium Chloride] | around 8 fold | no difference between withdrawal (wd) and continuous (cont) treatment |  | 47.0 | 33.3 | 18.6 | 0.5 | 58.9 | 27.0 | 11.9 | 0.8 |  | around 2 fold | 0.5 and 0.4 | 3.9 and 3.7 | G1 arrest
C#CCCCC(O)/C=C/C(=O)NC1(c2ccc(-c3nc4ccn5c(=O)[nH]nc5c4cc3-c3ccccc3)cc2)CCC1.Cl (stereo not drawn) [MK-HNE, (E)-8-(4-(1-(4-Hydroxynon-2-en-8-ynamido)cyclobutyl)phenyl)-3-oxo-9-phenyl-2,3-dihydro-[1,2,4]triazolo[3,4-f][1,6]naphthyridin-7-ium Chloride] |  |  |  | 41.7 | 30.3 | 25.9 | 0.4 | 49 | 25.5 | 16.6 | 5.5 | did not affect phosphorylation levels |  |  |  | G1 arrest
